{
  "source": "PubChem BioAssay AID248",
  "about": "(DTP/NCI, 2004)",
  "test_system": "L1210 leukemia ip in BDF1 mice, survival T/C",
  "experiment": "NCI In Vivo Anticancer Drug Screen. Data for tumor model L1210 Leukemia (intraperitoneal) in B6D2F1 (BDF1) mice",
  "conditions": "endpoint: mean survival time, higher = longer survival",
  "procedure,_shortened": "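Mice bearing the transplanted tumor received compound or vehicle. Survival of the treated group was divided by that of the vehicle-treated control group to give the ratio.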",
  "key": {"[1]": {"conditions": "dose: 25.0 mg/kg/injection, schedule: Q01DX009 (ip), vehicle: saline with Tween-80"}, "[2]": {"conditions": "dose: 100.0 mg/kg/injection, schedule: Q01DX009 (ip), vehicle: saline with Tween-80"}, "[3]": {"conditions": "dose: 50.0 mg/kg/injection, schedule: Q01DX009 (ip), vehicle: saline with Tween-80"}, "[4]": {"conditions": "dose: 100.0 mg/kg/injection, schedule: Q04DX003 (ip), vehicle: Klucel (hydroxypropylcellulose) (HPC)"}, "[5]": {"conditions": "dose: 200.0 mg/kg/injection, schedule: Q04DX003 (ip), vehicle: Klucel (hydroxypropylcellulose) (HPC)"}, "[6]": {"conditions": "dose: 100.0 mg/kg/injection, schedule: Q01DX009 (ip), vehicle: Klucel (hydroxypropylcellulose) (HPC)"}, "[7]": {"conditions": "dose: 200.0 mg/kg/injection, schedule: Q01DX009 (ip), vehicle: Klucel (hydroxypropylcellulose) (HPC)"}, "[8]": {"conditions": "dose: 50.0 mg/kg/injection, schedule: Q04DX003 (ip), vehicle: saline"}, "[9]": {"conditions": "dose: 100.0 mg/kg/injection, schedule: Q04DX003 (ip), vehicle: saline"}, "[10]": {"conditions": "dose: 200.0 mg/kg/injection, schedule: Q04DX003 (ip), vehicle: saline"}, "[11]": {"conditions": "dose: 100.0 mg/kg/injection, schedule: Q01DX001 (ip), vehicle: saline"}, "[12]": {"conditions": "dose: 200.0 mg/kg/injection, schedule: Q01DX001 (ip), vehicle: saline"}, "[13]": {"conditions": "dose: 400.0 mg/kg/injection, schedule: Q01DX001 (ip), vehicle: saline"}},
  "note": "“And” between values parts separate entries of the source, which are not always exact repeats. Identical values can stand only once. Toxic doses and inconclusive results are not listed.",
  "data": [
    {"smiles": "O=C(O)C1Cc2nc[nH]c2CN1CO", "note": "(stereo not given)", "values": [
      {"measurement": "T/C", "setting": "dose: 12.5 mg/kg/injection, schedule: Q01DX009 (ip), vehicle: saline with Tween-80", "result": "122 % of control"},
      {"measurement": "T/C", "setting": "[1]", "result": "113 % of control"},
      {"measurement": "T/C", "setting": "[2]", "result": "263 % of control"}
    ]},
    {"smiles": "CNCC1OC(n2cc(C)c(=O)[nH]c2=O)CC1O", "note": "(stereo not given)", "values": [
      {"measurement": "T/C", "setting": "dose: 25.0 mg/kg/injection, schedule: Q04DX002 (ip), vehicle: saline", "result": "108 % of control"},
      {"measurement": "T/C", "setting": "dose: 50.0 mg/kg/injection, schedule: Q04DX002 (ip), vehicle: saline", "result": "115 % of control"},
      {"measurement": "T/C", "setting": "dose: 100.0 mg/kg/injection, schedule: Q04DX002 (ip), vehicle: saline", "result": "97 % of control"}
    ]},
    {"smiles": "Cc1c(C)c(C)c(C(=O)O)c(C)c1C", "values": [
      {"measurement": "T/C", "setting": "[3]", "result": "93 % of control"},
      {"measurement": "T/C", "setting": "[2]", "result": "90 % of control"},
      {"measurement": "T/C", "setting": "dose: 200.0 mg/kg/injection, schedule: Q01DX009 (ip), vehicle: saline with Tween-80", "result": "93 % of control"}
    ]},
    {"smiles": "CC(=O)Nc1cccc(OCCCOc2cccc(C#N)c2)c1", "values": [
      {"measurement": "T/C", "setting": "[4]", "result": "96 % of control"},
      {"measurement": "T/C", "setting": "[5]", "result": "101 % of control"},
      {"measurement": "T/C", "setting": "dose: 400.0 mg/kg/injection, schedule: Q04DX003 (ip), vehicle: Klucel (hydroxypropylcellulose) (HPC)", "result": "98 % of control"}
    ]},
    {"smiles": "CCc1cc(C)cc(CC)c1N", "values": [
      {"measurement": "T/C", "setting": "[6]", "result": "104 % of control"},
      {"measurement": "T/C", "setting": "[7]", "result": "90 % of control"}
    ]},
    {"smiles": "CN(C)N=C1CCCC1", "values": [
      {"measurement": "T/C", "setting": "dose: 50.0 mg/kg/injection, schedule: Q01DX009 (ip), vehicle: saline", "result": "103 % of control"},
      {"measurement": "T/C", "setting": "dose: 100.0 mg/kg/injection, schedule: Q01DX009 (ip), vehicle: saline", "result": "103 % of control"}
    ]},
    {"smiles": "O=[N+]([O-])c1ccc(N/N=C/C(c2ccccc2)c2ccsc2)c([N+](=O)[O-])c1", "note": "(stereo not given)", "values": [
      {"measurement": "T/C", "setting": "[8]", "result": "104 % of control"},
      {"measurement": "T/C", "setting": "dose: 100.0 mg/kg/injection, schedule: Q01DX001 (ip), vehicle: saline with Tween-80", "result": "97 % of control"},
      {"measurement": "T/C", "setting": "[9]", "result": "106 % of control"},
      {"measurement": "T/C", "setting": "dose: 200.0 mg/kg/injection, schedule: Q01DX001 (ip), vehicle: saline with Tween-80", "result": "96 % of control"},
      {"measurement": "T/C", "setting": "[10]", "result": "104 % of control"}
    ]},
    {"smiles": "O=C(O)CCCCCCCCCCN1C(=O)CCC1=O", "values": [
      {"measurement": "T/C", "setting": "dose: 100.0 mg/kg/injection, schedule: Q04DX003 (ip), vehicle: carboxymethylcellulose (CMC)", "result": "98 % of control"},
      {"measurement": "T/C", "setting": "dose: 200.0 mg/kg/injection, schedule: Q04DX003 (ip), vehicle: carboxymethylcellulose (CMC)", "result": "92 % of control"},
      {"measurement": "T/C", "setting": "dose: 400.0 mg/kg/injection, schedule: Q04DX003 (ip), vehicle: carboxymethylcellulose (CMC)", "result": "104 % of control"}
    ]},
    {"smiles": "Nc1nc(N)c(-c2ccc(Cl)cc2)c(C(=O)O)n1", "values": [
      {"measurement": "T/C", "setting": "[1]", "result": "90 % of control"},
      {"measurement": "T/C", "setting": "[3]", "result": "97 % of control"},
      {"measurement": "T/C", "setting": "[2]", "result": "93 % of control and 103 % of control"}
    ]},
    {"smiles": "Cc1cc(N(CCCl)CCCl)ccc1C=NC1CCCC1", "values": [
      {"measurement": "T/C", "setting": "dose: 100.0 mg/kg/injection, schedule: Q01DX001 (ip), vehicle: carboxymethylcellulose (CMC)", "result": "102 % of control"},
      {"measurement": "T/C", "setting": "dose: 200.0 mg/kg/injection, schedule: Q01DX001 (ip), vehicle: carboxymethylcellulose (CMC)", "result": "105 % of control"},
      {"measurement": "T/C", "setting": "dose: 400.0 mg/kg/injection, schedule: Q01DX001 (ip), vehicle: carboxymethylcellulose (CMC)", "result": "118 % of control"}
    ]},
    {"smiles": "C=CCOP(=O)(OCC=C)OCC=C", "values": [
      {"measurement": "T/C", "setting": "dose: 50.0 mg/kg/injection, schedule: Q01DX009 (ip), vehicle: Klucel (hydroxypropylcellulose) (HPC)", "result": "97 % of control"},
      {"measurement": "T/C", "setting": "dose: 50.0 mg/kg/injection, schedule: Q04DX003 (ip), vehicle: Klucel (hydroxypropylcellulose) (HPC)", "result": "99 % of control"},
      {"measurement": "T/C", "setting": "[6]", "result": "97 % of control"},
      {"measurement": "T/C", "setting": "[4]", "result": "91 % of control"},
      {"measurement": "T/C", "setting": "[7]", "result": "98 % of control"},
      {"measurement": "T/C", "setting": "[5]", "result": "93 % of control"}
    ]},
    {"smiles": "CC(=O)c1ccc2cc(O)ccc2c1", "values": [
      {"measurement": "T/C", "setting": "[8]", "result": "101 % of control"},
      {"measurement": "T/C", "setting": "[11]", "result": "97 % of control"},
      {"measurement": "T/C", "setting": "[9]", "result": "101 % of control"},
      {"measurement": "T/C", "setting": "[12]", "result": "101 % of control"},
      {"measurement": "T/C", "setting": "[10]", "result": "103 % of control"},
      {"measurement": "T/C", "setting": "[13]", "result": "104 % of control"}
    ]},
    {"smiles": "O=C1NC(=O)C(CCCCCl)N1", "note": "(stereo not given)", "values": [
      {"measurement": "T/C", "setting": "[11]", "result": "91 % of control"},
      {"measurement": "T/C", "setting": "[12]", "result": "87 % of control"},
      {"measurement": "T/C", "setting": "[13]", "result": "94 % of control"}
    ]}
  ]
}
